pIC50: −log10 of the molar value. Activity calls are given as the source filed them. The calls are words filed in the database; no cut-off is given here.
Tests used:
[1] = molecular target: T1, E3 ubiquitin-protein ligase Mdm2 (Homo sapiens, UniProt Q00987); test: Inhibition of Mdm2 -p53 protein interaction by ELISA
Target sequence in this assay (Q00987 whole entry): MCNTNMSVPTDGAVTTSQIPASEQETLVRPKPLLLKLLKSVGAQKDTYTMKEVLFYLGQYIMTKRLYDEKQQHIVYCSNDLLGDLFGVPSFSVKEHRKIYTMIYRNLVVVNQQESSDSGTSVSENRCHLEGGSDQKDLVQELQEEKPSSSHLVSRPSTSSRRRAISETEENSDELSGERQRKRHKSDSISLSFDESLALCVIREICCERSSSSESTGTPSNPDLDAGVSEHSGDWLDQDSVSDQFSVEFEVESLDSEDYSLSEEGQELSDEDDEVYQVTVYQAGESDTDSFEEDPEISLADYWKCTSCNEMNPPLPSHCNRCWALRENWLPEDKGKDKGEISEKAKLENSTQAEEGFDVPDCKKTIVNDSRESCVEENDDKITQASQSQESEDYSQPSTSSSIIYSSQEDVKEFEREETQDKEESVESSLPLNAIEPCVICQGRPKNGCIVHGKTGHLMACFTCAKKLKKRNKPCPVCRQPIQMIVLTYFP

[2] = molecular target: T1, E3 ubiquitin-protein ligase Mdm2; test: Inhibition of Mdm2 -p53 protein interaction in human […] cells assessed as induction of MDM2 protein at 1 to 20 uM after 6 hrs by Western blot analysis; format: cell-based
Target sequence in this assay (Q00987 whole entry, looked up): as the sequence (Q00987 whole entry) above

[3] = molecular target: T1, E3 ubiquitin-protein ligase Mdm2; test: Inhibition of Mdm2 -p53 protein interaction in human […] cells assessed as induction of p53 protein at 1 to 20 uM after 6 hrs by Western blot analysis; format: cell-based
Target sequence in this assay (Q00987 whole entry, looked up): as the sequence (Q00987 whole entry) above

[4] = molecular target: T1, E3 ubiquitin-protein ligase Mdm2; test: Inhibition of Mdm2 -p53 protein interaction in human […] cells assessed as induction of p21 protein at 1 to 20 uM after 6 hrs by Western blot analysis; format: cell-based
Target sequence in this assay (Q00987 whole entry, looked up): as the sequence (Q00987 whole entry) above

[5] = molecular target: T1, E3 ubiquitin-protein ligase Mdm2; test: Inhibition of Mdm2 -p53 protein interaction in human […] cells assessed as induction of p53 protein at 10 uM after 6 hrs by Western blot analysis; format: cell-based
Target sequence in this assay (Q00987 whole entry, looked up): as the sequence (Q00987 whole entry) above

[6] = molecular target: T1, E3 ubiquitin-protein ligase Mdm2; test: Inhibition of Mdm2 -p53 protein interaction in human […] cells assessed as induction of p21 protein at 10 uM after 6 hrs by Western blot analysis; format: cell-based
Target sequence in this assay (Q00987 whole entry, looked up): as the sequence (Q00987 whole entry) above

[7] = tested on: HCT-116; test: Cytotoxicity against p53 deficient human HCT116 cells after 72 hrs by sulforhodamine B assay; format: functional; settings: HCT-116, 72 h
[8] = Cytotoxicity against human NGP cells after 72 hrs by sulforhodamine B assay; format: functional
[9] = tested on: SAOS-2; test: Cytotoxicity against human Saos2 cells after 72 hrs by sulforhodamine B assay; format: functional; settings: SAOS-2, 72 h
[10] = tested on: SJSA-1; test: Cytotoxicity against human SJSA1 cells after 72 hrs by sulforhodamine B assay; format: functional; settings: SJSA-1, 72 h
[11] = Cytotoxicity against human LS cells after 72 hrs by sulforhodamine B assay; format: functional
[12] = tested on: HCT-116; test: Cytotoxicity against human p53 expressing HCT116 cells after 72 hrs by sulforhodamine B assay; format: functional; settings: HCT-116, 72 h

## O=C1c2ccccc2C(O[C@H]2CC[C@@H](O)C2)(c2ccc(Cl)cc2)N1Cc1ccc([N+](=O)[O-])cc1 (mixture of isomers)
[1]
  pIC50: 6.40

## Nc1ccc(CCN2C(=O)c3ccccc3C2(O)c2ccc(Cl)cc2)cc1 (stereo unspecified)
[1]
  pIC50: 5.21

## O=C1c2ccccc2C(O[C@H]2C=C[C@@H](O)C2)(c2ccc(Cl)cc2)N1Cc1ccccc1 (mixture of isomers)
[1]
  pIC50: 5.33

## O=C1c2ccccc2C(O)(c2ccc(Cl)cc2)N1Cc1cccc2ccccc12 (stereo unspecified)
[1]
  pIC50: 4.33

## CCCN1C(=O)c2ccccc2C1(O)c1ccc(Cl)cc1 (stereo unspecified)
[1]
  pIC50: 4.16

## CC(C)(CO)COC1(c2ccc(Cl)cc2)c2ccccc2C(=O)N1Cc1ccc([N+](=O)[O-])cc1 (racemic)
[2]
  inhibition: Dose-dependent effect
[3]
  inhibition: Dose-dependent effect
[4]
  inhibition: Dose-dependent effect

## O=C1c2ccccc2C(O)(c2ccc(Cl)cc2)N1CCc1ccccc1 (stereo unspecified)
[1]
  pIC50: 5.14

## O=C1c2ccccc2C(O[C@H]2CCC[C@H](O)CCC2)(c2ccc(Cl)cc2)N1Cc1ccc([N+](=O)[O-])cc1 (mixture of isomers)
[2]
  inhibition: Dose-dependent effect
[1]
  pIC50: 6.42
[3]
  inhibition: Dose-dependent effect
[4]
  inhibition: Dose-dependent effect

## O=C1c2ccccc2C(OC[C@H]2CC[C@H](CO)CC2)(c2ccc(Cl)cc2)N1Cc1ccc([N+](=O)[O-])cc1 (mixture of isomers)
[2]
  inhibition: Dose-dependent effect
[5]
  inhibition: Active
[6]
  inhibition: Active
[3]
  inhibition: Dose-dependent effect
[4]
  inhibition: Dose-dependent effect

## COc1ccc(C2=N[C@@H](c3ccc(Cl)cc3)[C@@H](c3ccc(Cl)cc3)N2C(=O)N2CCNC(=O)C2)c(OC(C)C)c1 [NUTLIN-3]
[7]
  GI50: 34 µM
[8]
  GI50: 2.1 µM
[9]
  GI50: 18 µM
[10]
  GI50: 2.6 µM
[11]
  GI50: 2.3 µM
[12]
  GI50: 13 µM

## O=C1c2ccccc2C(OCC2(CO)CC2)(c2ccc(Cl)cc2)N1Cc1ccncc1 (racemic)
[1]
  pIC50: 3.60

## O=C1c2ccccc2C(O)(c2ccc(Cl)cc2)N1CCc1ccc([N+](=O)[O-])cc1 (stereo unspecified)
[1]
  pIC50: 5.21

## N#Cc1ccc(CN2C(=O)c3ccccc3C2(O)c2ccc(Cl)cc2)cc1 (stereo unspecified)
[1]
  pIC50: 5.22

## Cc1ccc(CN2C(=O)c3ccccc3C2(O)c2ccc(Cl)cc2)cc1 (stereo unspecified)
[1]
  pIC50: 4.82

## O=C(c1ccccc1)c1ccc(CN2C(=O)c3ccccc3C2(O)c2ccc(Cl)cc2)cc1 (stereo unspecified)
[1]
  pIC50: < 4.70

## O=C1c2ccccc2C(O)(c2ccc(Br)cc2)N1Cc1ccc([N+](=O)[O-])cc1 (stereo unspecified)
[1]
  pIC50: 5.51

## N#Cc1ccc(CN2C(=O)c3ccccc3C2(OCCCCO)c2ccc(Cl)cc2)cc1 (racemic)
[1]
  pIC50: 5.46

From ChEMBL document CHEMBL1687910, “Isoindolinone inhibitors of the murine double minute 2 (MDM2)-p53 protein-protein interaction: structure-activity studies leading to improved potency” (J Med Chem, 2011)
